Literature values in patent US20090198080A1, “METHOD FOR THE PREPARATION OF ARYL ETHERS” (Pfizer Inc, priority 2004, published 2009).

Assays:
8-OH-DPAT hypothermia = details: in vivo
[1] = different animal models

In the case of `CCOc1ccccc1O[C@@H](c1ccccc1)[C@@H]1CNCCO1` (racemic) [reboxetine, 2-[α-(2-ethoxyphenoxy)benzyl]morpholine], the “norepinephrine reuptake inhibitory activity” value (norepinephrine reuptake) is listed as “selective norepinephrine reuptake inhibitor”, the “effect in the 8-OH-DPAT hypothermia test” value (8-OH-DPAT hypothermia) is listed as “ineffective” and the anticholinergic binding activity [1] is listed as “no anticholinergic binding activity”. For the same molecule, the “monoamine oxidase (MAO) inhibitory activity” value (monoamine oxidase (MAO)) was “substantially devoid”, the “dopamine reuptake inhibitory activity” value (dopamine reuptake) was “no dopamine reuptake inhibitory activity” and the “serotonin reuptake inhibitory activity” value (serotonin reuptake) was “only marginal”.
